This is an account of results in ChEMBL document CHEMBL1201862, “PubChem BioAssay data set” (2004).

Test systems include NCI/ADR-RES; KM12; Malme-3M; SW-620; SNB-75; UO-31; RXF 393; NCI-H23; SK-OV-3; SK-MEL-2; MCF7; RPMI-8226; M14; HOP-62; IGROV-1; OVCAR-8; SK-MEL-5; NCI-H460; HT-29; HCT-116.
What all share (assay): growth of human tumour cells (NCI), 48 h

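Dose response: 5 concentrations. Exposure: 48 h. Format: 96-well plates. Endpoint: linear interpolation; highest concentration if not reached. GI50 = concentration required for 50% inhibition of growth.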 Calls of active or inactive are those of the source. Rule as the data show it: active = GI50 up to about 1.1 µM and inactive = higher.

Turning to `COc1ccc([I+]c2ccc(OC)cc2)cc1`, the GI50 in the assay with NCI/ADR-RES was > 100 µM (inactive); in the assay with KM12, 28.9 µM (inactive); in the assay on Malme-3M, 20.2 µM (inactive); in the assay with SW-620 it was > 91.8 µM (inactive); in the assay on SNB-75, 28.9 µM (inactive); with UO-31 it was > 100 µM (inactive). In addition, the GI50 with RXF 393 was > 100 µM (inactive); with NCI-H23, 13 µM (inactive); in the assay on SK-OV-3, > 100 µM (inactive); in the assay on SK-MEL-2, > 100 µM (inactive); in the assay on MCF7, 46.7 µM (inactive); in the assay with RPMI-8226, 44.1 µM (inactive). Further, the GI50 is 54.8 µM (inactive) in the assay with M14; 12.1 µM (inactive) in the assay with HOP-62; > 66.8 µM (inactive) in the assay with IGROV-1; 22.1 µM (inactive) in the assay with OVCAR-8; 5.75 µM (inactive) in the assay on SK-MEL-5; 4.47 µM (inactive) in the assay with NCI-H460. In the assay on HT-29, the GI50 was 39 µM (inactive).
As for `CCC1CN2CCC1CC2` (stereo not given), the GI50 in the assay on NCI/ADR-RES, in the assay on KM12, with Malme-3M, in the assay on SW-620, with SNB-75 and in the assay with UO-31 was > 100 µM (inactive) each time. Also, the GI50 in the assay with RXF 393, in the assay on NCI-H23, in the assay with SK-OV-3, with SK-MEL-2, in the assay with MCF7 and with RPMI-8226 was > 100 µM (inactive) throughout. In addition, the GI50 in the assay with HOP-62, in the assay on IGROV-1, in the assay on OVCAR-8, in the assay with HCT-116, with SK-MEL-5 and with NCI-H460 was > 100 µM (inactive) in each case. Further, in the assay on HT-29, the GI50 was > 100 µM (inactive).
On to `O=C(O)CCCCCCCCC(=O)O` [SEBACIC ACID], for which the GI50 in the assay on NCI/ADR-RES was > 79.3 µM (inactive); in the assay with KM12 it was > 500 µM (inactive); in the assay with Malme-3M, > 500 µM (inactive); in the assay with SW-620 it was > 500 µM (inactive); in the assay on SNB-75, > 79.3 µM (inactive); in the assay on UO-31 it was > 79.3 µM (inactive). Also, the GI50 in the assay on RXF 393 is 50 µM (inactive); with NCI-H23, 79.3 µM (inactive); in the assay with SK-OV-3, 50 µM (inactive); with SK-MEL-2 it was > 500 µM (inactive); in the assay on MCF7, > 377 µM (inactive); in the assay with RPMI-8226, > 500 µM (inactive). For the same compound, the GI50 in the assay on HOP-62 is > 50 µM (inactive); with IGROV-1, > 500 µM (inactive); in the assay on OVCAR-8, 108 µM (inactive); in the assay on HCT-116, > 500 µM (inactive); in the assay with SK-MEL-5, > 23.2 µM (inactive); with NCI-H460 it was 108 µM (inactive). Moreover, the GI50 with HT-29 is > 23.2 µM (inactive).
As for `O=C(O)/C=C/c1c[nH]cn1`, the GI50 with NCI/ADR-RES, in the assay with KM12, in the assay on Malme-3M, in the assay on SW-620, in the assay on SNB-75 and in the assay with UO-31 was > 500 µM (inactive) in each case. Besides, the GI50 with RXF 393, in the assay on NCI-H23, with SK-OV-3, with SK-MEL-2, in the assay on MCF7 and with RPMI-8226 was > 500 µM (inactive) in each case. For the same compound, the GI50 in the assay with HOP-62 was 493 µM (inactive); in the assay on IGROV-1 it was > 500 µM (inactive); in the assay with OVCAR-8, > 500 µM (inactive); with HCT-116, > 500 µM (inactive); with SK-MEL-5 it was > 232 µM (inactive); in the assay with NCI-H460, > 500 µM (inactive). In the assay on HT-29, the GI50 is > 500 µM (inactive).
For `C[C@H]1[C@@H]2C[C@@H]3O[C@@]34[C@H]3CCC5Cc6nc7c(nc6C[C@@]5(C)[C@]3(O)CC(=O)[C@@]24CO[C@]12OC(C)(C)C[C@@H]2O)CC1CC[C@@H]2C3=C[C@H]4O[C@@]5(OC(C)(CO)C[C@@H]5O)[C@H](C)[C@@]4(O)[C@]3(C)[C@@H](O)CC2[C@]1(C)C7` (stereo not given in full), the GI50 with NCI/ADR-RES is > 3.52 µM (inactive); in the assay on KM12, 0.0706 µM (active); in the assay with Malme-3M it was 0.0381 µM (active); in the assay on SW-620, 0.0333 µM (active); in the assay on SNB-75 it was 0.00071 µM (active); with UO-31, 0.223 µM (active). Further, the GI50 was 0.00178 µM (active) with RXF 393; 0.0414 µM (active) in the assay on NCI-H23; 0.0168 µM (active) in the assay with SK-OV-3; 0.0239 µM (active) with SK-MEL-2; 0.0345 µM (active) in the assay on MCF7; 0.00139 µM (active) in the assay with RPMI-8226. Moreover, the GI50 in the assay on HOP-62 was 0.0109 µM (active); with IGROV-1, 0.0291 µM (active); in the assay with OVCAR-8 it was 3.02 µM (inactive); with HCT-116 it was 0.0583 µM (active); in the assay on SK-MEL-5, 0.0873 µM (active); in the assay with NCI-H460, 0.00955 µM (active). Also, the GI50 in the assay on HT-29 was 0.014 µM (active).
In the case of `COC(=O)[C@@H]1c2cc3c(c(O)c2[C@@H](OC)C[C@@]1(C)O)C(=O)c1c(O)cc2c(c1C3=O)OC1O[C@@]2(C)[C@H](O)[C@@H](N(C)C)[C@@H]1O`, the GI50 with NCI/ADR-RES was 2.06 µM (inactive); with KM12, 0.379 µM (active); with Malme-3M, 0.506 µM (active); in the assay with SW-620, 0.193 µM (active); with SNB-75 it was 0.245 µM (active); in the assay on UO-31 it was 1.14 µM (inactive). Moreover, the GI50 in the assay with RXF 393 was 0.381 µM (active); with NCI-H23, 0.428 µM (active); with SK-OV-3 it was 0.522 µM (active); in the assay with SK-MEL-2, 0.28 µM (active); with MCF7 it was 2.72 µM (inactive); in the assay with RPMI-8226 it was 0.192 µM (active). The GI50 was 0.198 µM (active) in the assay with HOP-62; 0.291 µM (active) in the assay on IGROV-1; 0.234 µM (active) with OVCAR-8; 0.261 µM (active) in the assay with HCT-116; 0.364 µM (active) with SK-MEL-5; 0.129 µM (active) with NCI-H460. Also, the GI50 in the assay on HT-29 was 0.355 µM (active).
In the case of `CCOC(=O)c1cc(C)nc2c1c(=O)n(-c1ccccc1)c(=O)n2CCCCN1CCN(c2ncccn2)CC1`, the GI50 with NCI/ADR-RES is > 100 µM (inactive); in the assay on KM12, > 100 µM (inactive); with Malme-3M it was > 100 µM (inactive); in the assay with SW-620 it was > 100 µM (inactive); in the assay with SNB-75 it was 59 µM (inactive); with UO-31, 38.5 µM (inactive). Further, the GI50 in the assay on RXF 393 is > 100 µM (inactive); in the assay on NCI-H23, > 100 µM (inactive); in the assay with SK-OV-3, > 100 µM (inactive); with SK-MEL-2, > 100 µM (inactive); in the assay with MCF7, > 100 µM (inactive); in the assay on RPMI-8226, 23.8 µM (inactive). Besides, the GI50 in the assay on M14 was > 100 µM (inactive); with HOP-62, > 100 µM (inactive); with IGROV-1 it was > 100 µM (inactive); in the assay on OVCAR-8 it was > 100 µM (inactive); in the assay on HCT-116, 85.5 µM (inactive); in the assay with SK-MEL-5, 35.2 µM (inactive). Moreover, the GI50 in the assay on HT-29 is > 100 µM (inactive).
As for `CCCCCCCC/C=C\CCCCCCCCNc1ccn(C2OC(COP(=O)(O)OC3CC(n4cc(F)c(=O)[nH]c4=O)OC3CO)C(O)C2O)c(=O)n1` (stereo not given), the GI50 with NCI/ADR-RES is 3.36 µM (inactive); with KM12, 45 µM (inactive); in the assay with Malme-3M, 13.2 µM (inactive); in the assay on SW-620, > 41.3 µM (inactive); with SNB-75, 1.7 µM (inactive); in the assay with UO-31, 0.198 µM (active). The GI50 in the assay with RXF 393 was 9.62 µM (inactive); in the assay with NCI-H23 it was 0.433 µM (active); in the assay with SK-OV-3 it was 14.6 µM (inactive); in the assay with SK-MEL-2, > 100 µM (inactive); with MCF7, < 0.0394 µM (active); with RPMI-8226, 0.0509 µM (active). The GI50 in the assay on M14 is 0.315 µM (active); with HOP-62, < 0.0255 µM (active); with IGROV-1, > 26.7 µM (inactive); with OVCAR-8, 0.329 µM (active); in the assay with HCT-116, 0.329 µM (active); in the assay on SK-MEL-5, 10.4 µM (inactive). In addition, the GI50 in the assay with HT-29 was 4.19 µM (inactive).
As for `O=C(Nc1ccc(C2=NCCN2)cc1)c1cncc(C(=O)Nc2ccc(C3=NCCN3)cc2)c1`, the GI50 in the assay with NCI/ADR-RES is > 100 µM (inactive); in the assay on KM12, > 100 µM (inactive); in the assay on Malme-3M it was > 100 µM (inactive); with SW-620, > 100 µM (inactive); in the assay with SNB-75, > 31.6 µM (inactive); in the assay with UO-31 it was > 100 µM (inactive). Besides, the GI50 in the assay on RXF 393, in the assay on NCI-H23, in the assay on SK-OV-3, with SK-MEL-2, in the assay with MCF7 and in the assay with RPMI-8226 was > 100 µM (inactive) throughout. For the same compound, the GI50 in the assay with HOP-62, with IGROV-1, in the assay with OVCAR-8, in the assay on HCT-116, with SK-MEL-5 and in the assay with NCI-H460 was > 100 µM (inactive) throughout. Moreover, the GI50 in the assay with HT-29 was > 100 µM (inactive).
`Cn1c2ccccc2c(=O)c2c(O)cc3c(c21)C=CC(C)(C)O3` [NORACRONYCINE]: the GI50 with NCI/ADR-RES was > 25 µM (inactive); in the assay on KM12, > 25 µM (inactive); in the assay on Malme-3M, > 25 µM (inactive); with SW-620 it was 12.2 µM (inactive); in the assay with SNB-75, > 16.8 µM (inactive); in the assay with UO-31, > 25 µM (inactive). Also, the GI50 with RXF 393 is > 10.2 µM (inactive); in the assay with NCI-H23, > 25 µM (inactive); in the assay with SK-OV-3, > 25 µM (inactive); in the assay with SK-MEL-2, > 25 µM (inactive); in the assay with MCF7, > 25 µM (inactive); in the assay on RPMI-8226, > 25 µM (inactive). In addition, the GI50 in the assay with HOP-62 is > 25 µM (inactive); in the assay with IGROV-1, > 25 µM (inactive); in the assay with OVCAR-8, 2.5 µM (inactive); with HCT-116, > 25 µM (inactive); with SK-MEL-5 it was > 25 µM (inactive); in the assay on NCI-H460, > 25 µM (inactive). The GI50 in the assay with HT-29 is > 25 µM (inactive).
